Source: US6355799B1, “Substituted benzene compounds, process for their preparation, and herbicidal and defoliant compositions containing them” (ISK Americas Incorporated, priority 1997, dated 2002)

Experiments:
Assay type in all cases: in vivo
[1] = test system: barnyardgrass (Echinochloa crus-galli, ECHCG); experiment: Pre-emerge test, greenhouse herbicide activity screening; conditions: for phytotoxicity rating ECHCG: pre-emerge, 14 days after application, scale 0-100; for Pre-emerge Herbicidal Activity ECHCG: phytotoxicity rating 0-100, 14 days after application
Outline: (§1)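 Fourteen days after spraying, crop and weed injury was graded visually from 0, no effect, to 100, every plant dead. Test substances were dissolved in acetone and applied at 15–1000 g ai/ha with a flat-fan nozzle. Application was either pre-emergence, one day after sowing, or post-emergence at the 2–3 leaf stage.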

[2] = test system: green foxtail (Setaria viridis, SETVI); experiment: as above; conditions: for phytotoxicity rating SETVI: pre-emerge, 14 days after application, scale 0-100; for Pre-emerge Herbicidal Activity SETVI: phytotoxicity rating 0-100, 14 days after application
Outline: as §1

[3] = test system: sicklepod (Cassia obtusifolia, CASOB); experiment: as above; conditions: for phytotoxicity rating CASOB: pre-emerge, 14 days after application, scale 0-100; for Pre-emerge Herbicidal Activity CASOB: phytotoxicity rating 0-100, 14 days after application
Outline: as §1

[4] = test system: lambsquarters (Chenopodium album, CHEAL); experiment: as above; conditions: for phytotoxicity rating CHEAL: pre-emerge, 14 days after application, scale 0-100; for Pre-emerge Herbicidal Activity CHEAL: phytotoxicity rating 0-100, 14 days after application
Outline: as §1

[5] = test system: velvetleaf (Abutilon theophrasti, ABUTH); experiment: as above; conditions: for phytotoxicity rating ABUTH: pre-emerge, 14 days after application, scale 0-100; for Pre-emerge Herbicidal Activity ABUTH: phytotoxicity rating 0-100, 14 days after application
Outline: as §1

[6] = test system: ivyleaf morningglory (Ipomoea hederacea, IPOHE); experiment: as above; conditions: for phytotoxicity rating IPOHE: pre-emerge, 14 days after application, scale 0-100; for Pre-emerge Herbicidal Activity IPOHE: phytotoxicity rating 0-100, 14 days after application
Outline: as §1

[7] = test system: large crabgrass (Digitaria sanguinalis, DIGSA); experiment: as above; conditions: for phytotoxicity rating DIGSA: pre-emerge, 14 days after application, scale 0-100; for Pre-emerge Herbicidal Activity DIGSA: phytotoxicity rating 0-100, 14 days after application
Outline: as §1

[8] = test system: johnsongrass (Sorghum halepense, SORHA); experiment: as above; conditions: for phytotoxicity rating SORHA: pre-emerge, 14 days after application, scale 0-100; for Pre-emerge Herbicidal Activity SORHA: phytotoxicity rating 0-100, 14 days after application
Outline: as §1

[9] = test system: common ragweed (Ambrosia artemisizfolia L., AMBEL); experiment: as above; conditions: for phytotoxicity rating AMBEL: pre-emerge, 14 days after application, scale 0-100; for Pre-emerge Herbicidal Activity AMBEL: phytotoxicity rating 0-100, 14 days after application
Outline: as §1

[10] = test system: field corn (Zea mays L., var. Dekalb 535, CORN); experiment: Pre-emerge test, crop safety; conditions: for phytotoxicity rating CORN (crop damage): pre-emerge, 14 days after application, scale 0-100; for Pre-emerge Herbicidal Activity CORN: crop damage rating 0-100, 14 days after application
Outline: (§2)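 Visual ratings on a 0-100 scale (0 no damage, 100 all plants dead) were taken at 14 days after treatment. Rates of 15-1000 g ai/ha in acetone, 187 l/ha, were sprayed onto soil one day after planting (pre-emerge) or onto 2-3 leaf plants with 0.25% v/v surfactant (post-emerge).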

[11] = test system: upland rice (Oryza sp., var. Tebonnet, RICE); experiment: Pre-emerge test, crop safety; conditions: for phytotoxicity rating RICE (crop damage): pre-emerge, 14 days after application, scale 0-100; for Pre-emerge Herbicidal Activity RICE: crop damage rating 0-100, 14 days after application
Outline: as §2

[12] = test system: redroot pigweed (Amaranthus retroflexus, AMARE); experiment: Pre-emerge test, greenhouse herbicide activity screening; conditions: for phytotoxicity rating AMARE: pre-emerge, 14 days after application, scale 0-100; for Pre-emerge Herbicidal Activity AMARE: phytotoxicity rating 0-100, 14 days after application
Outline: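 Rating: 0–100 visual injury, 14 DAA. Application: acetone, 187 l/ha, 15–1000 g ai/ha, flat-fan track sprayer with nozzle 40–45 cm above soil or canopy. Post-emerge runs used 0.25% v/v surfactant on 2–3 leaf plants.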

[13] = test system: barnyardgrass (Echinochloa crus-galli, ECHCG); experiment: Post-emerge test, greenhouse herbicide activity screening; conditions: post-emerge, 14 days after application, rating scale 0-100
Outline: (§3)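 Compounds in acetone were track-sprayed at 15–1000 g ai/ha: pre-emergence onto soil sown the previous day, then top-watered to incorporate and later bottom-watered; post-emergence onto 2–3 leaf plants with 0.25% v/v surfactant, bottom-watered only. Ratings on a 0–100 phytotoxicity scale were taken at day 14.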

[14] = test system: redroot pigweed (Amaranthus retroflexus, AMARE); experiment: as above; conditions: post-emerge, 14 days after application
Outline: as §3

[15] = test system: green foxtail (Setaria viridis, SETVI); experiment: as above; conditions: post-emerge, 14 days after application, rating scale 0-100
Outline: as §3

[16] = test system: sicklepod (Cassia obtusifolia, CASOB); experiment: as above; conditions: post-emerge, 14 days after application, rating scale 0-100
Outline: as §3

[17] = test system: lambsquarters (Chenopodium album, CHEAL); experiment: as above; conditions: post-emerge, 14 days after application, rating scale 0-100
Outline: as §3

[18] = test system: velvetleaf (Abutilon theophrasti, ABUTH); experiment: as above; conditions: post-emerge, 14 days after application, rating scale 0-100
Outline: as §3

[19] = test system: ivyleaf morningglory (Ipomoea hederacea, IPOHE); experiment: as above; conditions: post-emerge, 14 days after application, rating scale 0-100
Outline: as §3

[20] = test system: large crabgrass (Digitaria sanguinalis, DIGSA); experiment: as above; conditions: post-emerge, 14 days after application, rating scale 0-100
Outline: as §3

[21] = test system: johnsongrass (Sorghum halepense, SORHA); experiment: as above; conditions: post-emerge, 14 days after application, rating scale 0-100
Outline: as §3

[22] = test system: field corn (Zea mays L., var. Dekalb 535, CORN); experiment: Post-emerge test, crop safety; conditions: post-emerge, 14 days after application, rating scale 0-100
Outline: as §1

[23] = test system: upland rice (Oryza sp., var. Tebonnet, RICE); experiment: Post-emerge test, crop safety; conditions: post-emerge, 14 days after application, rating scale 0-100
Outline: as §1

[24] = 250 g ai/ha, rating scale 0-100

## Cn1c(C(F)(F)F)cc(=O)n(-c2c(F)cc(OC(F)F)cc2NC(=O)c2ccc3ccccc3c2)c1=O [2-148]
[1]; 63 g ai/ha
  phytotoxicity rating ECHCG: 90
[1]; 250 g ai/ha
  phytotoxicity rating ECHCG: 100
[2]; 63 g ai/ha
  phytotoxicity rating SETVI: 80
[2]; 250 g ai/ha
  phytotoxicity rating SETVI: 95
[3]; 63 g ai/ha
  phytotoxicity rating CASOB: 50
[3]; 250 g ai/ha
  phytotoxicity rating CASOB: 95
[4]; 63 g ai/ha
  phytotoxicity rating CHEAL: 100
[4]; 250 g ai/ha
  phytotoxicity rating CHEAL: 100
[5]; 63 g ai/ha
  phytotoxicity rating ABUTH: 100
[5]; 250 g ai/ha
  phytotoxicity rating ABUTH: 100
[6]; 63 g ai/ha
  phytotoxicity rating IPOHE: 50
[6]; 250 g ai/ha
  phytotoxicity rating IPOHE: 99
[7]; 63 g ai/ha
  phytotoxicity rating DIGSA: 95
[7]; 250 g ai/ha
  phytotoxicity rating DIGSA: 100
[8]; 63 g ai/ha
  phytotoxicity rating SORHA: 0
[8]; 250 g ai/ha
  phytotoxicity rating SORHA: 30
[9]; 63 g ai/ha
  phytotoxicity rating AMBEL: 0
[9]; 250 g ai/ha
  phytotoxicity rating AMBEL: 100
[10]; 63 g ai/ha
  phytotoxicity rating CORN (crop damage): 0
[10]; 250 g ai/ha
  phytotoxicity rating CORN (crop damage): 0
[11]; 63 g ai/ha
  phytotoxicity rating RICE (crop damage): 0
[11]; 250 g ai/ha
  phytotoxicity rating RICE (crop damage): 60
[12]; 63 g ai/ha
  phytotoxicity rating AMARE: 100
[12]; 250 g ai/ha
  phytotoxicity rating AMARE: 100
[13]; 63 g ai/ha
  ECHCG phytotoxicity rating: 50
[13]; 250 g ai/ha
  ECHCG phytotoxicity rating: 20
[14]; 63 g ai/ha, rating scale 0-100
  AMARE phytotoxicity rating: 100
[14]; [24]
  AMARE phytotoxicity rating: 90
[15]; 63 g ai/ha
  SETVI phytotoxicity rating: 50
[15]; 250 g ai/ha
  SETVI phytotoxicity rating: 40
[16]; 63 g ai/ha
  CASOB phytotoxicity rating: 95
[16]; 250 g ai/ha
  CASOB phytotoxicity rating: 100
[17]; 63 g ai/ha
  CHEAL phytotoxicity rating: 100
[17]; 250 g ai/ha
  CHEAL phytotoxicity rating: 100
[18]; 63 g ai/ha
  ABUTH phytotoxicity rating: 100
[18]; 250 g ai/ha
  ABUTH phytotoxicity rating: 100
[19]; 63 g ai/ha
  IPOHE phytotoxicity rating: 80
[19]; 250 g ai/ha
  IPOHE phytotoxicity rating: 90
[20]; 63 g ai/ha
  DIGSA phytotoxicity rating: 40
[20]; 250 g ai/ha
  DIGSA phytotoxicity rating: 40
[21]; 63 g ai/ha
  SORHA phytotoxicity rating: 0
[21]; 250 g ai/ha
  SORHA phytotoxicity rating: 10
[22]; 63 g ai/ha
  CORN phytotoxicity rating (crop damage): 25
[22]; 250 g ai/ha
  CORN phytotoxicity rating (crop damage): 30
[23]; 63 g ai/ha
  RICE phytotoxicity rating (crop damage): 0
[23]; 250 g ai/ha
  RICE phytotoxicity rating (crop damage): 10

## Cc1ccc(-n2c(=O)cc(C(F)(F)F)n(C)c2=O)c(NC(=O)c2ccc3ccccc3c2)c1 [2-201]
[1]; 63 g ai/ha
  Pre-emerge Herbicidal Activity ECHCG: 15
[1]; 250 g ai/ha
  Pre-emerge Herbicidal Activity ECHCG: 75
[2]; 63 g ai/ha
  Pre-emerge Herbicidal Activity SETVI: 0
[2]; 250 g ai/ha
  Pre-emerge Herbicidal Activity SETVI: 75
[3]; 63 g ai/ha
  Pre-emerge Herbicidal Activity CASOB: 0
[3]; 250 g ai/ha
  Pre-emerge Herbicidal Activity CASOB: 0
[4]; 63 g ai/ha
  Pre-emerge Herbicidal Activity CHEAL: 98
[4]; 250 g ai/ha
  Pre-emerge Herbicidal Activity CHEAL: 100
[5]; 63 g ai/ha
  Pre-emerge Herbicidal Activity ABUTH: 98
[5]; 250 g ai/ha
  Pre-emerge Herbicidal Activity ABUTH: 100
[6]; 63 g ai/ha
  Pre-emerge Herbicidal Activity IPOHE: 55
[6]; 250 g ai/ha
  Pre-emerge Herbicidal Activity IPOHE: 80
[7]; 63 g ai/ha
  Pre-emerge Herbicidal Activity DIGSA: 45
[7]; 250 g ai/ha
  Pre-emerge Herbicidal Activity DIGSA: 95
[8]; 63 g ai/ha
  Pre-emerge Herbicidal Activity SORHA: 0
[8]; 250 g ai/ha
  Pre-emerge Herbicidal Activity SORHA: 30
[9]; 63 g ai/ha
  Pre-emerge Herbicidal Activity AMBEL: 30
[9]; 250 g ai/ha
  Pre-emerge Herbicidal Activity AMBEL: 80
[10]; 63 g ai/ha
  Pre-emerge Herbicidal Activity CORN: 0
[10]; 250 g ai/ha
  Pre-emerge Herbicidal Activity CORN: 0
[11]; 63 g ai/ha
  Pre-emerge Herbicidal Activity RICE: 0
[11]; 250 g ai/ha
  Pre-emerge Herbicidal Activity RICE: 30
[12]; 63 g ai/ha
  Pre-emerge Herbicidal Activity AMARE: 95
[12]; 250 g ai/ha
  Pre-emerge Herbicidal Activity AMARE: 95
[13]; 63 g ai/ha
  phytotoxicity rating ECHCG: 50
[13]; 250 g ai/ha
  phytotoxicity rating ECHCG: 60
[14]; 63 g ai/ha, rating scale 0-100 (0 no damage, 100 complete death)
  phytotoxicity rating AMARE: 99
[14]; [24]
  phytotoxicity rating AMARE: 100
[15]; 63 g ai/ha
  phytotoxicity rating SETVI: 20
[15]; 250 g ai/ha
  phytotoxicity rating SETVI: 30
[16]; 63 g ai/ha
  phytotoxicity rating CASOB: 60
[16]; 250 g ai/ha
  phytotoxicity rating CASOB: 85
[17]; 63 g ai/ha
  phytotoxicity rating CHEAL: 95
[17]; 250 g ai/ha
  phytotoxicity rating CHEAL: 98
[18]; 63 g ai/ha
  phytotoxicity rating ABUTH: 95
[18]; 250 g ai/ha
  phytotoxicity rating ABUTH: 99
[19]; 63 g ai/ha
  phytotoxicity rating IPOHE: 95
[19]; 250 g ai/ha
  phytotoxicity rating IPOHE: 95
[20]; 63 g ai/ha
  phytotoxicity rating DIGSA: 35
[20]; 250 g ai/ha
  phytotoxicity rating DIGSA: 45
[21]; 63 g ai/ha
  phytotoxicity rating SORHA: 0
[21]; 250 g ai/ha
  phytotoxicity rating SORHA: 0
[22]; 63 g ai/ha
  phytotoxicity rating CORN (crop damage): 30
[22]; 250 g ai/ha
  phytotoxicity rating CORN (crop damage): 35
[23]; 63 g ai/ha
  phytotoxicity rating RICE (crop damage): 60
[23]; 250 g ai/ha
  phytotoxicity rating RICE (crop damage): 65
